Assay results published in US10196403B2, “Compounds and compositions and uses thereof” (Sunovion Pharmaceuticals Inc., priority 2016, dated 2019).

System: mice
Assay: Neuropharmacological Assay (SmartCube)
Type: in vivo
Settings: for minimal effective dose: Mus musculus, MED = dose having 50% or more total activity in SmartCube, read-out: POTENCY (minimal effective dose, MED); for AD: ADHD (SmartCube probability) / AG: analgesic (SmartCube probability) / AX: anxiolytic (SmartCube probability) / CE: cognitive enhancer (SmartCube probability) / DP: anti-depressant (SmartCube probability) / MS: mood stabilizer (SmartCube probability) / PS: anti-psychotic (SmartCube probability) / SD: sedative hypnotic (SmartCube probability) / UN: uncharacterized CNS activity (SmartCube probability): mice, i.p. 15 min before test, most efficacious dose(s) of 3 doses
From the text: Neuropharmacological Assay (SmartCube™)
Neurosci. 2011 Sep. 9; 5:103 (doi: 10.3389/fnins.2011.00103) (“Roberds”). As reported in Roberds, because psychiatric diseases generally result from disorders of cell-cell communication, circuitry, intact systems are useful in detecting improvement in disease-relevant endpoints. These endpoints are typically behavioral in nature, often requiring human observation and interpretation. To facilitate testing of multiple compounds for behavioral effects relevant to psychiatric disease, PsychoGenics, Inc. (Tarrytown, N.Y., “PGI”) developed SmartCube™, an automated system in which behaviors of compound-treated mice are captured by digital video and analyzed with computer algorithms. (D. Brunner et al., Drug Discov. Today 2002, 7:S107-S112). PGI Analytical Systems uses data from SmartCube™ to compare the behavioral signature of a test compound to a database of behavioral signatures obtained using a large set of diverse reference compounds. (The composition of the database as well as validation of the method is further described in Roberds). In this way, the neuropharmacological effects of a test compound can be predicted by similarity to major classes of compounds, such as antipsychotics, anxiolytics and antidepressants.
The SmartCube™ system produces an activity signature indicating the probability that the activity of the test compound at the administered dose matches a given class of neuropharmacological agents. (See, e.g., Roberds, FIGS. 2 and 3). The test compound is simultaneously compared against multiple classes of agents; thus, a separate probability is generated for each behavioral effect measured (e.g., anxiolytic activity, analgesic activity, etc.). In the table below, these probabilities are reported for each behavioral effect measured as follows:
where LOQ is the limit of quantification.
Provided compounds were dissolved in a mixture of Pharmasolve™ (N-methyl-2-pyrrolidone), polyethylene glycol and propylene glycol, and were injected i.p. 15 min. before the behavioral test. For each compound, injections were administered at 3 different doses. For each behavioral effect measured, results for the most efficacious dose(s) are presented. In the table below, DP: anti-depressant; AX: anxiolytic; SD: sedative hypnotic; PS: anti-psychotic; MS: mood stabilizer; AD: ADHD; CE: cognitive enhancer; AG: analgesic; UN: uncharacterized CNS activity.
The potency of many of the compounds in the table was also determined in the SmartCube™ system. Test compounds were routinely examined at dose levels of 0.3, 1, 3 10 and 30 mg per kg (mpk), although the dose range was increased or decreased if necessary to obtain a full dose response curve. A compound's minimal effective dose (MED) is a measure of the compounds potency. The MED was defined as the dose (in mpk) having 50% or more total activity in SmartCube.

SMILES | minimal effective dose | AD: ADHD (SmartCube probability) | AG: analgesic (SmartCube probability) | AX: anxiolytic (SmartCube probability) | CE: cognitive enhancer (SmartCube probability) | DP: anti-depressant (SmartCube probability) | MS: mood stabilizer (SmartCube probability) | PS: anti-psychotic (SmartCube probability) | SD: sedative hypnotic (SmartCube probability) | UN: uncharacterized CNS activity (SmartCube probability)
CNC[C@@H]1OCCc2c1ccc1c2OCO1 [Example 4, (R)-1-(8,9-dihydro-6H-[1,3]dioxolo[4,5-f]isochromen-6-yl)-N-methylmethanamine] | 3 to 10 mg/kg | + (LOQ≤ + <5%) | ++ (5%≤ ++ <25%) | + (LOQ≤ + <5%) | + (LOQ≤ + <5%) | ++++ (50%≤ ++++) | + (LOQ≤ + <5%) | + (LOQ≤ + <5%) | + (LOQ≤ + <5%) | + (LOQ≤ + <5%)
CNC[C@H]1OCCc2c(Cl)cccc21 [Example 32, (S)-1-(5-chloroisochroman-1-yl)-N-methylmethanamine] | 10 to 30 mg/kg | + (LOQ≤ + <5%) | + (LOQ≤ + <5%) | ++ (5%≤ ++ <25%) | ++ (5%≤ ++ <25%) | ++ (5%≤ ++ <25%) | + (LOQ≤ + <5%) | ++ (5%≤ ++ <25%) | + (LOQ≤ + <5%) | + (LOQ≤ + <5%)
CN(C)C[C@@H]1OCCc2cccc(F)c21 [Example 85, (R)-1-(8-fluoroisochroman-1-yl)-N,N-dimethylmethanamine] | < 3 mg/kg | + (LOQ≤ + <5%) | + (LOQ≤ + <5%) | +++ (25%≤ +++ <50%) | ++ (5%≤ ++ <25%) | ++ (5%≤ ++ <25%) | + (LOQ≤ + <5%) | ++ (5%≤ ++ <25%) | ++ (5%≤ ++ <25%) | +++ (25%≤ +++ <50%)
CNC[C@@H]1OC[C@H](F)c2ccccc21 [Example 22, 1-((1R,4R)-4-fluoroisochroman-1-yl)-N-methylmethanamine] | < 3 mg/kg | + (LOQ≤ + <5%) | ++ (5%≤ ++ <25%) | ++ (5%≤ ++ <25%) | ++ (5%≤ ++ <25%) | +++ (25%≤ +++ <50%) | ++ (5%≤ ++ <25%) | +++ (25%≤ +++ <50%) | ++ (5%≤ ++ <25%) | + (LOQ≤ + <5%)
CNC[C@@H]1OCCc2cccc(Cl)c21 [Example 37, (R)-1-(8-chloroisochroman-1-yl)-N-methylmethanamine] | < 3 mg/kg | + (LOQ≤ + <5%) | ++ (5%≤ ++ <25%) | + (LOQ≤ + <5%) | ++ (5%≤ ++ <25%) | ++ (5%≤ ++ <25%) | + (LOQ≤ + <5%) | ++ (5%≤ ++ <25%) | + (LOQ≤ + <5%) | ++++ (50%≤ ++++)
CNC[C@@H]1OCCc2ccc3c(c21)OCC3 [Example 105, (R)-N-methyl-1-(2,3,6,9-tetrahydro-7H-furo[3,2-h]isochromen-9-yl)methanamine] | < 3 mg/kg | + (LOQ≤ + <5%) | + (LOQ≤ + <5%) | ++ (5%≤ ++ <25%) | + (LOQ≤ + <5%) | ++ (5%≤ ++ <25%) | + (LOQ≤ + <5%) | ++ (5%≤ ++ <25%) | +++ (25%≤ +++ <50%) | + (LOQ≤ + <5%)
CNC[C@@H]1OC[C@@H](O)c2ccc3c(c21)OCO3 (single isomer, unassigned) [Example 111] | 10 to 30 mg/kg | + (LOQ≤ + <5%) | + (LOQ≤ + <5%) | ++ (5%≤ ++ <25%) | + (LOQ≤ + <5%) | ++++ (50%≤ ++++) | + (LOQ≤ + <5%) | ++ (5%≤ ++ <25%) | + (LOQ≤ + <5%) | + (LOQ≤ + <5%)
NC[C@@H]1OCCc2c(F)cccc21 [Example 29, (R)-(5-fluoroisochroman-1-yl)methanamine] | 3 to 10 mg/kg | + (LOQ≤ + <5%) | ++ (5%≤ ++ <25%) | ++ (5%≤ ++ <25%) | ++ (5%≤ ++ <25%) | ++++ (50%≤ ++++) | + (LOQ≤ + <5%) | + (LOQ≤ + <5%) | + (LOQ≤ + <5%) | ++ (5%≤ ++ <25%)
NC[C@@H]1OCCc2cccc(F)c21 [Example 35, (R)-(8-fluoroisochroman-1-yl)methanamine] | < 3 mg/kg | ++ (5%≤ ++ <25%) | ++ (5%≤ ++ <25%) | ++ (5%≤ ++ <25%) | ++ (5%≤ ++ <25%) | ++++ (50%≤ ++++) | + (LOQ≤ + <5%) | ++ (5%≤ ++ <25%) | ++ (5%≤ ++ <25%) | ++++ (50%≤ ++++)
CNC[C@@H]1OCCc2c(C)cccc21 [Example 39, (R)-N-methyl-1-(5-methylisochroman-1-yl)methanamine] | < 3 mg/kg | + (LOQ≤ + <5%) | ++ (5%≤ ++ <25%) | ++ (5%≤ ++ <25%) | ++ (5%≤ ++ <25%) | ++++ (50%≤ ++++) | + (LOQ≤ + <5%) | ++ (5%≤ ++ <25%) | + (LOQ≤ + <5%) | +++ (25%≤ +++ <50%)
CNC[C@H]1OCCc2ccc3c(c21)OC(F)(F)O3 [Example 102, (S)-1-(2,2-difluoro-6,9-dihydro-7H-[1,3]dioxolo[4,5-h]isochromen-9-yl)-N-methylmethanamine] | 10 to 30 mg/kg | + (LOQ≤ + <5%) | ++ (5%≤ ++ <25%) | ++ (5%≤ ++ <25%) | + (LOQ≤ + <5%) | ++ (5%≤ ++ <25%) | + (LOQ≤ + <5%) | + (LOQ≤ + <5%) | + (LOQ≤ + <5%) | +++ (25%≤ +++ <50%)
NC[C@@H]1OCCc2cc(F)ccc21 [Example 34, (R)-(6-fluoroisochroman-1-yl)methanamine] | < 3 mg/kg | + (LOQ≤ + <5%) | ++ (5%≤ ++ <25%) | ++ (5%≤ ++ <25%) | ++ (5%≤ ++ <25%) | ++ (5%≤ ++ <25%) | ++ (5%≤ ++ <25%) | +++ (25%≤ +++ <50%) | + (LOQ≤ + <5%) | +++ (25%≤ +++ <50%)
